Test results: ChEMBL document CHEMBL3045497, “An analogue of piperonyl butoxide facilitates the characterisation of metabolic resistance” (Pest Manag Sci, 2009)
Values after ≈ are worked out from the molar mass of the structure shown. Active and inactive are the calls of the source. No cut-off for these calls is given here.

Columns and labels:
Bemisia tabaci [1] = test: Inhibition of B-type Bemisia tabaci (sweet potato whitefly) oxidase-mediated O-deethylation using 285 uM of 7-ethoxycoumarin as substrate assessed as residual activity after 120 min relative to control
[2] = Inhibition of B-type Bemisia tabaci (sweet potato whitefly) esterase using 500 uM of 1-naphthyl butyrate as substrate after 120 min
Bemisia tabaci [3] = test: Reversible inhibition of B-type Bemisia tabaci (sweet potato whitefly) esterase using 1-naphthyl butyrate as substrate after 10 to 120 min
[4] = Inhibition of B-type Bemisia tabaci (sweet potato whitefly) esterase using 31.25 uM of 1-naphthyl butyrate as substrate after 120 min
Bemisia tabaci [5] = test: Inhibition of B-type Bemisia tabaci (sweet potato whitefly) oxidase-mediated O-deethylation using 18 uM of 7-ethoxycoumarin as substrate assessed as residual activity after 10 min relative to control
Bemisia tabaci [6] = test: Inhibition of B-type Bemisia tabaci (sweet potato whitefly) oxidase-mediated O-deethylation using 285 uM of 7-ethoxycoumarin as substrate assessed as residual activity after 10 min relative to control
[7] = Inhibition of B-type Bemisia tabaci (sweet potato whitefly) esterase using 500 uM of 1-naphthyl butyrate as substrate after 10 min
Bemisia tabaci [8] = test: Non-competitive inhibition of B-type Bemisia tabaci (sweet potato whitefly) esterase using 1-naphthyl butyrate as substrate after 10 to 120 min
Bemisia tabaci [9] = test: Insecticidal activity against drug-resistant Bemisia tabaci GUAMIX (sweet potato whitefly) in cotton plant leaf assessed as mortality after 48 hr in presence of PBO pretreated 5 hr before compound challenge; assay type: functional
Bemisia tabaci [10] = test: Insecticidal activity against drug-susceptible Bemisia tabaci SUD-S (sweet potato whitefly) in cotton plant leaf assessed as mortality after 48 hr; assay type: functional
Bemisia tabaci [11] = test: Insecticidal activity against drug-resistant Bemisia tabaci GUAMIX (sweet potato whitefly) in cotton plant leaf assessed as mortality after 48 hr; assay type: functional
Bemisia tabaci [12] = test: Insecticidal activity against drug-susceptible Bemisia tabaci SUD-S (sweet potato whitefly) in cotton plant leaf assessed as mortality after 48 hr in presence of PBO pretreated 5 hr before compound challenge; assay type: functional
Bemisia tabaci [13] = test: Resistant factor, ratio of LC50 for drug-susceptible Bemisia tabaci SUD-S (sweet potato whitefly) to LC50 for drug-resistant Bemisia tabaci GUAMIX (sweet potato whitefly); assay type: functional
Bemisia tabaci [14] = test: Insecticidal activity against drug-resistant Bemisia tabaci GUAMIX (sweet potato whitefly) in cotton plant leaf assessed as mortality after 48 hr in presence of EN 16/5-1 pretreated 5 hr before compound challenge; assay type: functional
Bemisia tabaci [15] = test: Resistant factor, ratio of LC50 for […] (sweet potato whitefly) in presence of EN 16/5-1; assay type: functional
Bemisia tabaci [16] = test: Resistant factor, ratio of LC50 for […] (sweet potato whitefly) in presence of PBO; assay type: functional
Bemisia tabaci [17] = test: Insecticidal activity against drug-susceptible Bemisia tabaci SUD-S (sweet potato whitefly) in cotton plant leaf assessed as mortality after 48 hr in presence of EN 16/5-1 pretreated 5 hr before compound challenge; assay type: functional

SMILES | Activity (Bemisia tabaci [1]) | IC50 [2] | inhibition (Bemisia tabaci [3]) | IC50 [4] | Activity (Bemisia tabaci [5]) | Activity (Bemisia tabaci [6]) | IC50 [7] | inhibition (Bemisia tabaci [8]) | LC50 (Bemisia tabaci [9]) | LC50 (Bemisia tabaci [10]) | LC50 (Bemisia tabaci [11]) | LC50 (Bemisia tabaci [12]) | RatioLC50 (Bemisia tabaci [13]) | LC50 (Bemisia tabaci [14]) | RatioLC50 (Bemisia tabaci [15]) | RatioLC50 (Bemisia tabaci [16]) | LC50 (Bemisia tabaci [17])
CCCCOCCOCCOCc1cc2c(cc1CCC)CCO2 | 82% | 5.4 µM | Active | 4.8 µM | 42% | 78% | 6.5 µM | Active | – | – | – | – | – | – | – | – | –
O=[N+]([O-])/N=C1\NCCN1Cc1ccc(Cl)nc1 [IMIDACLOPRID] | – | – | – | – | – | – | – | – | 32.1 µg/mL | 1.49 µg/mL (≈ 5.83 µM) | > 1000 µg/mL | 0.49 µg/mL | >670 | 847 µg/mL | 900 | 65.5 | 0.94 µg/mL
CCCCOCCOCCOCc1cc2c(cc1CCC)OCO2 [PIPERONYL BUTOXIDE] | 27% | 5.1 µM | Active | 5.4 µM | 16% | 24% | 4.7 µM | Active | – | – | – | – | – | – | – | – | –
